The subject of the assay is BDF1 mice, P388 leukemia ip, median survival T/C. Kind of assay: NCI In Vivo Anticancer Drug Screen. Data for tumor model P388 Leukemia (intraperitoneal) in B6D2F1 (BDF1) mice. The following applies: endpoint: median survival time, higher = longer survival. On the procedure: The antitumor activity of compounds was measured in mice bearing transplantable tumors. Survival or tumor size were measured and the results are expressed as the measurement made in the treated group (T) divided by the measurement made in the vehicle treated control group (C). The tumor model used in this assay is P388 Leukemia (intraperitoneal) in B6D2F1 (BDF1) mice

Setting [1] is: dose: 100.0 mg/kg/injection, schedule: Q01DX009 (ip), vehicle: saline with Tween-80.
Setting [2] is: dose: 100.0 mg/kg/injection, schedule: Q04DX003 (ip), vehicle: saline with Tween-80.
Where [3] appears, read: dose: 200.0 mg/kg/injection, schedule: Q01DX009 (ip), vehicle: saline with Tween-80.
[4] abbreviates: dose: 400.0 mg/kg/injection, schedule: Q01DX009 (ip), vehicle: saline with Tween-80.
Setting [5] is: dose: 12.5 mg/kg/injection, schedule: Q01DX009 (ip), vehicle: saline with Tween-80.
The mark [6] stands for this setting: dose: 12.5 mg/kg/injection, schedule: Q04DX003 (ip), vehicle: saline with Tween-80.
Where [7] appears, read: dose: 25.0 mg/kg/injection, schedule: Q01DX009 (ip), vehicle: saline with Tween-80.
Setting [8] is: dose: 25.0 mg/kg/injection, schedule: Q04DX003 (ip), vehicle: saline with Tween-80.
Where [9] appears, read: dose: 50.0 mg/kg/injection, schedule: Q01DX009 (ip), vehicle: saline with Tween-80.
The mark [10] stands for this setting: dose: 50.0 mg/kg/injection, schedule: Q01DX005 (ip), vehicle: saline with Tween-80.
Where [11] appears, read: dose: 200.0 mg/kg/injection, schedule: Q01DX005 (ip), vehicle: saline with Tween-80.
The mark [12] stands for this setting: dose: 100.0 mg/kg/injection, schedule: Q04DX003 (ip), vehicle: saline.
[13] abbreviates: dose: 200.0 mg/kg/injection, schedule: Q04DX003 (ip), vehicle: saline.
Where [14] appears, read: dose: 400.0 mg/kg/injection, schedule: Q04DX003 (ip), vehicle: saline.
The mark [15] stands for this setting: dose: 50.0 mg/kg/injection, schedule: Q01DX009 (ip), vehicle: saline.
Setting [16] is: dose: 100.0 mg/kg/injection, schedule: Q01DX009 (ip), vehicle: saline.
Setting [17] is: dose: 200.0 mg/kg/injection, schedule: Q01DX009 (ip), vehicle: saline.
Where [18] appears, read: dose: 50.0 mg/kg/injection, schedule: Q04DX003 (ip), vehicle: saline.
Setting [19] is: dose: 25.0 mg/kg/injection, schedule: Q01DX009 (ip), vehicle: saline.

“And” between values parts separate entries of the source, which are not always exact repeats. Equal entries are not always repeated. Inconclusive results and toxic doses are left out.

We go through 21 compounds from PubChem BioAssay AID328 (DTP/NCI, 2004).

As for `O=C(Cn1ccc(O)cc1=O)c1ccco1`, the T/C by setting is: under setting [1], 100 % of control; under setting [2], 100 % of control; under setting [3], 95 % of control; (dose: 200.0 mg/kg/injection, schedule: Q04DX003 (ip), vehicle: saline with Tween-80) 109 % of control; under setting [4], 104 % of control; (dose: 400.0 mg/kg/injection, schedule: Q04DX003 (ip), vehicle: saline with Tween-80) 104 % of control.

For the compound `CC(=O)SCCC(=O)O`, the T/C reads like this: (dose: 6.25 mg/kg/injection, schedule: Q01DX009 (ip), vehicle: saline with Tween-80) 109 % of control; (dose: 6.25 mg/kg/injection, schedule: Q04DX003 (ip), vehicle: saline with Tween-80) 100 % of control; under setting [5], 100 % of control; under setting [6], 95 % of control; under setting [7], 109 % of control; under setting [8], 100 % of control.

On to `Clc1nc2nc[nH]c2nc1Cl`, for which the T/C is, setting by setting: under setting [6], 100 % of control; under setting [7], 170 % of control; under setting [8], 100 % of control; under setting [9], 95 % of control; (dose: 50.0 mg/kg/injection, schedule: Q04DX003 (ip), vehicle: saline with Tween-80) 90 % of control; under setting [2], 95 % of control.

On to `COc1ccc(-c2nnc(C)nc2-c2ccc(OC)cc2)cc1`, for which the T/C by setting is: under setting [10], 96 % of control; (dose: 100.0 mg/kg/injection, schedule: Q01DX005 (ip), vehicle: saline with Tween-80) 106 % of control; under setting [11], 100 % of control.

`O=C(c1ccccc1)C(Br)C(Br)C(=O)c1ccccc1` (stereo not given): the T/C was 115 % of control (dose: 100.0 mg/kg/injection, schedule: Q01DX009 (ip), vehicle: Klucel (hydroxypropylcellulose) (HPC)); 100 % of control (dose: 200.0 mg/kg/injection, schedule: Q01DX009 (ip), vehicle: Klucel (hydroxypropylcellulose) (HPC)); 95 % of control (dose: 400.0 mg/kg/injection, schedule: Q01DX009 (ip), vehicle: Klucel (hydroxypropylcellulose) (HPC)).

In the case of `CCCCCCCCCCCC1CCCC(C)N1` (stereo not given), the T/C was 100 % of control under setting [12]; 95 % of control under setting [13]; 91 % of control and 95 % of control under setting [14].

`CCOC(=O)C(C)(OCC)OCC`: the T/C reads like this: under setting [15], 105 % of control; under setting [16], 110 % of control; (dose: 100.0 mg/kg/injection, schedule: Q01DX009 (ip), vehicle: water) 98 % of control; under setting [12], 100 % of control; (dose: 100.0 mg/kg/injection, schedule: Q04DX003 (ip), vehicle: water) 104 % of control; under setting [17], 115 % of control. The T/C reads like this: (dose: 200.0 mg/kg/injection, schedule: Q01DX009 (ip), vehicle: water) 101 % of control; under setting [13], 91 % of control; (dose: 200.0 mg/kg/injection, schedule: Q04DX003 (ip), vehicle: water) 95 % of control; under setting [14], 91 % of control; (dose: 400.0 mg/kg/injection, schedule: Q04DX003 (ip), vehicle: water) 100 % of control.

Regarding `CC#CCOCC(O)CCl` (stereo not given), the T/C runs as follows: under setting [18], 115 % of control; under setting [16], 108 % of control; under setting [12], 95 % of control; under setting [17], 116 % of control; under setting [13], 90 % of control; under setting [14], 112 % of control.

For `[NH-]C(CCC(N)=O)C(=O)O.[NH-]C(CCC(N)=O)C(=O)O.[Pt+2]` (stereo not given), the T/C by setting is: (dose: 12.5 mg/kg/injection, schedule: Q01DX009 (ip), vehicle: distilled water + Tween-80) 100 % of control; (dose: 25.0 mg/kg/injection, schedule: Q01DX009 (ip), vehicle: distilled water + Tween-80) 100 % of control; (dose: 50.0 mg/kg/injection, schedule: Q01DX009 (ip), vehicle: distilled water + Tween-80) 100 % of control; (dose: 100.0 mg/kg/injection, schedule: Q01DX009 (ip), vehicle: distilled water + Tween-80) 113 % of control.

For the compound `CN(C)c1ccc(C=C2C(=O)CC(C)(C)CC2=O)cc1`, the T/C is, setting by setting: under setting [9], 105 % of control; under setting [1], 95 % of control; under setting [3], 97 % of control.

In the case of `CCN(CC)CCSC(=O)C(O)(c1ccccc1)C1CCCC1` (stereo not given), the T/C is, setting by setting: under setting [19], 109 % of control; (dose: 25.0 mg/kg/injection, schedule: Q04DX003 (ip), vehicle: saline) 109 % of control; under setting [15], 95 % of control; under setting [18], 104 % of control; under setting [16], 113 % of control; under setting [12], 109 % of control.

Consider `CC(C)(C)CC(C)(C)c1ccc(O)cc1O`, for which the T/C under setting [7] is 120 % of control and the T/C under setting [9] is 95 % of control.

In the case of `NCCC(O)C(=O)NC1CC(N)C(OC2OC(CO)C(O)C(O)C2N)C(OC2OC(CO)C(O)C2O)C1O` (stereo not given), the T/C by setting is: (dose: 12.5 mg/kg/injection, schedule: Q01DX009 (ip), vehicle: saline) 109 % of control; under setting [19], 109 % of control; under setting [15], 100 % of control.

As to `CN1C(=O)c2ccccc2CC12c1ccccc1C(=O)N2C` (stereo not given), the T/C under setting [10] was 86 % of control and the T/C under setting [11] was 86 % of control.

`COc1ccc(/C=C/C(=O)c2ccccc2)cc1Br`: the T/C is 109 % of control under setting [1], 109 % of control under setting [3] and 113 % of control under setting [4].

With `CCCCN(C(=O)C(F)(F)F)C(C)(C)C(SSSC(c1cccs1)C(C)(C)N(CCCC)C(=O)C(F)(F)F)c1cccs1` (stereo not given), the T/C under setting [2] was 109 % of control.

Take `CCOC(=O)CSc1sc(C(=O)OCC)c(N)c1C#N`: the T/C under setting [5] is 99 % of control, the T/C under setting [7] is 99 % of control and the T/C under setting [9] was 99 % of control.

In the case of `O=C(/C=C/c1c(Cl)cccc1Cl)c1ccc(Cl)cc1`, the T/C under setting [1] is 86 % of control, the T/C under setting [3] is 90 % of control and the T/C under setting [4] was 104 % of control.

As to `CN(C)c1ccc(C(N)=O)cn1`, the T/C (dose: 0.51 mg/kg/injection, schedule: Q01DX009 (ip), vehicle: saline) was 95 % of control; the T/C (dose: 1.03 mg/kg/injection, schedule: Q01DX009 (ip), vehicle: saline) was 115 % of control; the T/C (dose: 2.0 mg/kg/injection, schedule: Q01DX009 (ip), vehicle: saline) was 90 % of control; the T/C (dose: 2.06 mg/kg/injection, schedule: Q01DX009 (ip), vehicle: saline) was 100 % of control; the T/C (dose: 3.0 mg/kg/injection, schedule: Q04DX003 (ip), vehicle: saline) is 100 % of control; the T/C (dose: 3.13 mg/kg/injection, schedule: Q01DX009 (ip), vehicle: saline) was 100 % of control. For the same compound, the T/C runs as follows: (dose: 4.12 mg/kg/injection, schedule: Q01DX009 (ip), vehicle: saline) 112 % of control; (dose: 4.7 mg/kg/injection, schedule: Q01DX009 (ip), vehicle: saline) 86 % of control; (dose: 6.0 mg/kg/injection, schedule: Q04DX003 (ip), vehicle: saline) 100 % of control; (dose: 12.0 mg/kg/injection, schedule: Q04DX003 (ip), vehicle: saline) 109 % of control; (dose: 17.0 mg/kg/injection, schedule: Q04DX003 (ip), vehicle: saline) 118 % of control; (dose: 40.0 mg/kg/injection, schedule: Q04DX003 (ip), vehicle: saline) 95 % of control.

Turning to `CCCCCCCCCCCCCC(=O)[O][Sn]([CH2]CCC)([CH2]CCC)[O]C(=O)CCCCCCCCCCCCC`, the T/C was 104 % of control (dose: 0.78 mg/kg/injection, schedule: Q04DX003 (ip), vehicle: other); 109 % of control (dose: 1.56 mg/kg/injection, schedule: Q04DX003 (ip), vehicle: other); 113 % of control (dose: 3.13 mg/kg/injection, schedule: Q04DX003 (ip), vehicle: other).

`C=CCOc1ccccc1N/N=C(\Cl)C(=O)OCC`: the T/C under setting [9] was 119 % of control.
